Results from patent US8618080B2, “Immunomodulatory compounds and treatment of diseases related to an overproduction of inflammatory cytokines” (OM Pharma, priority 2006, dated 2013).

Experiments:
NOD mice = assay: Occurrence of diabetes in Non Obese Diabetic (NOD) mice; format: in vivo; conditions: for Occurrence of diabetes versus control (Kaplan-Meier, logrank): 10 weeks
Procedure: Group of 10 female 6-week old NOD mice were treated during 10 weeks with either 0.01, 0.1, and 1 mg/kg of OM-197-MP-AC. A group of 6 female MOD mice receiving 200 μl PBS i.p. 3 times a week was used as control.
In this series of experiments, the treatment was continued until the mice have reached 16 weeks of age. This is the point in time when control animals start developing overt diabetes.
Results in terms of diabetes incidence were compared to those obtained in control animals. Diabetes was checked once a week by glucosuria testing, using test strips (Glukotest®, Roche, France), twice a week when diabetes appeared. Diabetes was confirmed by evaluating glycemia (>3 mg/ml) with test strips (Glucotrend®).
The occurrence of diabetes in the different experimental groups is plotted (see FIG. 15) using the Kaplan-Meier method, i.e. non parametric cumulative survival plot. The statistical comparison between the curves is performed using the logrank (Mantel-Cox) test which provided the corresponding χ2 values.
FIG. 15: Occurrence of diabetes in NOD mice. Mice were treated i.p. with either PBS (6 animals), or the 3 indicated doses of OM-197-MP-AC (3 groups of 10 animals). Diabetes was checked once a week by glucosuria testing (Glukotest), and twice a week when diabetes appeared. Diabetes was confirmed by evaluating glycemia (>3 mg/ml) with test strips (Glucotrend®). The occurrence of diabetes in the different experimental groups is plotted (see FIG. 15) using the Kaplan-Meier method, i.e. non parametric cumulative survival plot. The statistical comparison between the curves is performed using the logrank (Mantel-Cox) test which provided the corresponding χ2 values: OM-197-MP-AC 1 mg/kg p=0.321; 0.1 mg/kg=0.0543

[1] = Pyrogenicity in the rabbit; format: in vivo, New Zealand white rabbits; conditions: i.v., temperature increase
Procedure: 3 New Zealand white rabbits/group were injected i.v. with either OM-197-MP-AC or OM-294-DP at different doses (according to the European Pharmacopoeia 2001, Method 2.6.8).
Animals: Readout: temperature increase

murine DC cells = assay: LPS-induced IL-12, TNF-α and IL-10 production by bone marrow derived dendritic cells; format: cell-based, murine (C57BL/7); conditions: murine BM-derived DC; compound 0.01-100 μg/ml 1 h 30 before LPS 1 μg/ml; 20 h; ELISA
Procedure: Femora and tibiae from two male C57BL/7, 6 week-old (Charles River Laboratories France), were removed, stripped of muscles and tendons, and desinfected with 70% ethanol. Both ends of each bone were cut and the marrow was flushed with HBSS (Gibco BRL) using a syringe with a 26-gauge needle. The resulting cell suspension was centrifuged for 5 min. at 500 g and washed in HBSS. The cells were resuspended at 3×10^5 cells/ml in RPMI-1640 (Gibco BRL) supplemented with 2 mM L-glutamin (Sigma), 100 U/ml penicillin (Sigma), 100 μg/ml streptomycin (Sigma), 50 μM β-mercaptoethanol (Sigma), 10% heat-inactivated FCS (Sigma) and 15 ng/ml murine rGM-CSF (R&D).
To generate bone marrow (BM) derived dendritic cells (DC), BM leukocytes were cultured in 100-mm bacteriological petri dishes (Falcon 1029) for 8 days at 37° C. in 5% CO2. On day 0, 10 ml of cell suspension were seeded per dish. On day 3, another 10 ml of freshly prepared medium were added to each plate and on day 6, 9 ml of top medium were carefully removed from each plate and replaced by 10 ml of fresh medium.
Non-adherent cells of the 8-day old BM cell cultures were collected, centrifuged for 5 min. at 500 g, and resuspended at 1.25×10^6 cells/ml in supplemented RPMI containing 10 ng/ml GM-CSF. The cells were then seeded in 24-well tissue culture plates ([…]) and incubated for 1 h 30 at 37° C. in 5% CO2 in the absence or presence of OM-294-DP or OM-197-MP-AC (0.01-100 μg/ml/200 μl/well). LPS (E.coli O26:B6, Sigma), was then added at 1 μg/ml, and the plates were further incubated. After 20 h incubation, the supernatants were collected for analysis of cytokines. IL-12p70, IL-10, and TNF-α concentrations in DC culture supernatants were measured by ELISA using OptEIA matched Ab pairs from BD Pharmingen. Supersignal ELISA Pico chemiluminescent peroxidase substrate (BD Pharmingen) was used for the detection by luminometry (Wallac 1420 multilabel counter Victor-2). The assays were performed according to manufacturer's instructions.
FIG. 1: IL-12 (left panels) and IL-10 (right panels) secretion by murine DC stimulated by LPS (1 μg/ml) alone, or first during 90 minutes with the indicated concentrations (in μg/ml) of OM-197-MP-AC (A) or 294-DP (B), and then by LPS (1 μg/ml) for 20 additional hours. The supernatants were collected from the DC cultures and analyzed by ELISA for the presence of IL-12 and IL-10.
FIG. 2: TNF-α secretion by murine DC stimulated by LPS (1 μg/ml) alone, or first during 90 minutes with the indicated concentrations (in μg/ml) of 294-DP (294), or of OM-197-MP-AC (197), and then by LPS (1 μg/ml) for 20 additional hours. The supernatants were collected from the DC cultures and analyzed by ELISA for the presence of TNF-α.

**Q.** What does the source list for `CCCCCCCCCCCC(=O)O[C@H](CCCCCCCCCCC)CC(=O)N[C@@H](CCOP(=O)(O)O)C(=O)NCCC[C@H](COC(=O)CCCCCN)NC(=O)C[C@H](O)CCCCCCCCCCC` [OM-197-MP-AC, (3S, 9R)-3-[(R)-3-dodecanoyloxytetradecanoylamino]-4-oxo-5-aza-9-[(R)-3-hydroxytetradecanoylamino]-decan-1, 10-diol 1-dihydrogenophosphate 10-(6-aminohexanoate)]?
**A.** Occurrence of diabetes versus control (Kaplan-Meier, logrank) (NOD mice; 0.1 mg/kg i.p.): positive trend; Animals exhibiting diabetes (NOD mice; 0.3 mg/kg, week 27, another experiment): 27%; Occurrence of diabetes versus control (Kaplan-Meier, logrank) (NOD mice; 1 mg/kg i.p.): significantly active; Pyrogenic threshold [1]: > 0.9 mg/kg; LPS-induced production of IL-10 (murine DC cells): increase; LPS-induced production of IL-12 (murine DC cells): decrease; LPS-induced production of TNF-α (murine DC cells): decrease
